This is an account of results in ChEMBL document CHEMBL1201862, “PubChem BioAssay data set” (2004).

Assay in all cases: NCI-60 cell line screen, 48 h
In experiment [1] the test system is Malme-3M.
In experiment [2] the test system is SR.
Experiment [3] concerns UACC-257.
Experiment [4] relates to IGROV-1.
Experiment [5] relates to EKVX.
Experiment [6] has as its system SK-OV-3.
Experiment [7] relates to UO-31.
Experiment [8] concerns SNB-19.
Experiment [9] has as its system HT-29.
Experiment [10] relates to SK-MEL-28.
Experiment [11] concerns HOP-62.
Experiment [12] deals with OVCAR-5.
The test system of experiment [13] is HCT-15.
The subject of experiment [14] is 786-0.
Experiment [15] relates to NCI-H522.
Experiment [16] relates to ACHN.
In experiment [17] the test system is SK-MEL-2.
Experiment [18] has as its system K562.
For experiment [19], the system named is OVCAR-8.
Experiment [20] deals with SNB-75.

Values joined by “and” are separate entries in the source; they are usually repeats but may differ in a detail not shown here. Identical values can stand only once.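 Cells were grown in 96-well plates and exposed to each compound for 48 hours at five concentrations; endpoints were interpolated linearly between bracketing concentrations, or set to the highest concentration if not reached. At the GI50, growth is halved.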 Active and inactive are the calls of the source. No stated cut-off is given here; in the data, active = GI50 up to about 1.1 µM and inactive = higher.

Take `FC(F)(F)c1ccc(/N=N/N2CCCC2)cc1`: the GI50 in [1] was > 100 µM (inactive); in [2], 68.7 µM (inactive); in experiment [3], > 100 µM (inactive); in [4] it was > 100 µM (inactive); in [5] it was > 100 µM (inactive); in experiment [6] it was > 100 µM (inactive). Moreover, the GI50 is 54.7 µM (inactive) in [7]; > 100 µM (inactive) in [8]; > 100 µM (inactive) in [9]; > 100 µM (inactive) in experiment [10]; > 100 µM (inactive) in experiment [11]; > 100 µM (inactive) in experiment [12]. In addition, the GI50 is over 100 µM in experiment [13]; > 100 µM (inactive) in experiment [14]; > 100 µM (inactive) in experiment [15]; > 100 µM (inactive) in experiment [16]; > 100 µM (inactive) in [17]; > 100 µM (inactive) in [18].

In the case of `O=C1c2ccccc2C(=O)c2[nH]c(=O)c(/C=N/Nc3ccc([N+](=O)[O-])cc3)nc21`, the GI50 in experiment [1] was 1.21 µM (inactive); in experiment [2], 17.5 µM (inactive); in experiment [3], 2.15 µM (inactive); in [4], 14.4 µM (inactive); in [5], 24.1 µM (inactive); in [6] it was 9.73 µM (inactive). The GI50 in experiment [7] is 6.58 µM (inactive); in experiment [8], 15.9 µM (inactive); in experiment [9], 2.59 µM (inactive); in [10] it was 5.47 µM (inactive); in experiment [11], 2.28 µM (inactive); in experiment [12], 31.6 µM (inactive). The GI50 in experiment [13] was 3.67 µM; in experiment [14] it was 15.9 µM (inactive); in experiment [15] it was 3.23 µM (inactive); in experiment [16], 13.2 µM (inactive); in experiment [17], 3.86 µM (inactive); in [19], 15.8 µM (inactive). The GI50 in experiment [18] was > 43.6 µM (inactive).

As to `CC12C3C4C1C1C2C3C41CO` (centres undefined), the GI50 in [2] was > 100 µM (inactive); in experiment [20] it was 34 µM (inactive); in experiment [3], > 100 µM (inactive); in experiment [4], > 100 µM (inactive); in [5], > 100 µM (inactive); in experiment [6] it was > 100 µM (inactive). Moreover, the GI50 in [7] is > 100 µM (inactive); in [8] it was > 100 µM (inactive); in experiment [9], > 100 µM (inactive); in [10], > 100 µM (inactive); in experiment [12], > 100 µM (inactive); in experiment [13] it was over 100 µM. In addition, the GI50 in experiment [14], in experiment [16], in [17], in [19] and in experiment [18] was > 100 µM (inactive) throughout.

`O=C(CCC(NC(=O)OCc1ccccc1)C(=O)OCc1ccccc1)Nc1cccc(OCc2ccccc2)c1` (centres undefined): the GI50 was 14.5 µM (inactive) in experiment [1]; 18.5 µM (inactive) in [2]; 35.6 µM (inactive) in experiment [20]; 23.7 µM (inactive) in [3]; 30.3 µM (inactive) in experiment [4]; 35.6 µM (inactive) in [5]. The GI50 is 67.3 µM (inactive) in experiment [6]; 51.3 µM (inactive) in [8]; 29.9 µM (inactive) in [9]; 40.4 µM (inactive) in experiment [10]; 28.6 µM (inactive) in experiment [11]; 28.6 µM (inactive) in [12]. The GI50 in experiment [13] is 18.3 µM; in experiment [14] it was 17.7 µM (inactive); in experiment [15], 18.7 µM (inactive); in experiment [16], 29.7 µM (inactive); in [19], 26.5 µM (inactive); in experiment [18], 24.2 µM (inactive).

As to `O=C1c2ccccc2C2(c3ccc(Cl)cc3)N[C@H]3CCCC[C@@H]3N12` (some centres undefined), the GI50 in experiment [2] was 43.6 µM (inactive); in experiment [20], > 100 µM (inactive); in experiment [3], > 100 µM (inactive); in [4], > 100 µM (inactive); in experiment [5], 78.3 µM (inactive); in experiment [6], > 100 µM (inactive). Besides, the GI50 in experiment [7] was > 100 µM (inactive); in experiment [8] it was 35.4 µM (inactive); in [9], 73.8 µM (inactive); in experiment [10], > 100 µM (inactive); in [11], 41.1 µM (inactive); in [13] it was over 100 µM. Also, the GI50 in experiment [14] was 95.1 µM (inactive); in [16] it was > 100 µM (inactive); in experiment [19] it was > 100 µM (inactive); in [18] it was > 100 µM (inactive).

For the molecule `Cn1c(=O)c2[nH]c(/N=N/N3CCN(CCO)CC3)nc2n(C)c1=O`, the GI50 in [1], in [2], in experiment [3], in [4], in experiment [5] and in experiment [6] was > 100 µM (inactive) throughout. For the same molecule, the GI50 in [7], in [8], in experiment [9], in experiment [10], in [11] and in experiment [12] was > 100 µM (inactive) each time. Also, the GI50 was over 100 µM in [13]; > 100 µM (inactive) in experiment [14]; > 100 µM (inactive) in experiment [15]; > 100 µM (inactive) in [16]; > 100 µM (inactive) in experiment [17]; > 100 µM (inactive) in experiment [19]. In addition, the GI50 in experiment [18] is > 100 µM (inactive).

In the case of `N#C/C(=C\c1ccc2ccccc2c1)c1ccccc1`, the GI50 in experiment [2] was 46.8 µM (inactive); in experiment [20], 23.2 µM (inactive); in experiment [3], 25.5 µM (inactive); in [4], 14.9 µM (inactive); in [6], 26.3 µM (inactive); in [7] it was 25.5 µM (inactive). Also, the GI50 in experiment [9] is 26.7 µM (inactive); in experiment [10] it was 45.4 µM (inactive); in experiment [11], 26.6 µM (inactive); in [12] it was 98.2 µM (inactive); in experiment [13], 23.6 µM; in experiment [14], 18.9 µM (inactive). Moreover, the GI50 in experiment [15] is 12 µM (inactive); in [16], 18.7 µM (inactive); in experiment [17] it was 25.8 µM (inactive); in experiment [19], 32.4 µM (inactive).

Regarding `O=C1OC(c2ccccc2)=N/C1=C\c1ccccc1`, the GI50 in [2] was 28.4 µM (inactive) and 14.5 µM (inactive); in [20], 66.8 µM (inactive) and 47.5 µM (inactive); in experiment [3], 41.4 µM (inactive) and 25.9 µM (inactive); in experiment [4], 55.5 µM (inactive) and 37.6 µM (inactive); in experiment [5], > 100 µM (inactive); in experiment [6] it was > 100 µM (inactive). Further, the GI50 was > 100 µM (inactive) in experiment [7]; 66.7 µM (inactive) and 40.1 µM (inactive) in [8]; > 100 µM (inactive) and 83.9 µM (inactive) in experiment [10]; 29.1 µM (inactive) and 25.8 µM (inactive) in experiment [11]; > 100 µM (inactive) in [12]; 42.9 µM (inactive) in experiment [15]. For the same molecule, the GI50 in [16] was > 100 µM (inactive); in [17] it was 17.8 µM (inactive); in experiment [19], 38.8 µM (inactive) and 32.6 µM (inactive).

For the molecule `c1ccc(/N=C(\N2CCCCC2)N(CCN2CCCCC2)c2ccccc2)cc1`, the GI50 in [2] is 0.28 µM (active); in experiment [20], 2.28 µM (inactive); in experiment [3], 1.82 µM (inactive); in experiment [4], 0.396 µM (active); in experiment [6], 1.65 µM (inactive); in [7], 1.68 µM (inactive). For the same molecule, the GI50 in [8] is 3.78 µM (inactive); in experiment [9] it was 0.141 µM (active); in [10] it was 1.99 µM (inactive); in [11] it was 1.43 µM (inactive); in experiment [12] it was 1.82 µM (inactive); in experiment [13], 1.68 µM. Also, the GI50 is 0.428 µM (active) in experiment [15]; 1.58 µM (inactive) in experiment [16]; 1.76 µM (inactive) in [17]; 2.01 µM (inactive) in experiment [19]; 0.254 µM (active) in experiment [18].

As for `Cc1ccc(C2(O)c3ccccc3C(=O)N(C)C2(O)c2ccc(C)cc2)cc1` (centres undefined), the GI50 in [1] was > 100 µM (inactive); in experiment [2], 2.39 µM (inactive); in experiment [3], > 100 µM (inactive); in experiment [4], > 100 µM (inactive); in experiment [5], 32.8 µM (inactive); in experiment [6], > 100 µM (inactive). For the same molecule, the GI50 in experiment [7] is 57.8 µM (inactive); in [8], 21.5 µM (inactive); in [9] it was 46.8 µM (inactive); in experiment [10], > 100 µM (inactive); in experiment [11], 22 µM (inactive); in experiment [12] it was > 100 µM (inactive). Moreover, the GI50 in experiment [13] was 52 µM; in experiment [14] it was 37 µM (inactive); in experiment [15], > 100 µM (inactive); in experiment [17] it was > 100 µM (inactive); in [19], 25.5 µM (inactive); in [18] it was 28.4 µM (inactive).

`CC1(CO)COS(=O)OC1` (centres undefined): the GI50 in experiment [2], in experiment [20], in experiment [3], in experiment [6], in experiment [7] and in [8] was > 100 µM (inactive) each time. In addition, the GI50 in experiment [9] is > 100 µM (inactive); in experiment [10], > 100 µM (inactive); in experiment [13] it was over 100 µM; in experiment [15], > 100 µM (inactive); in [16], > 100 µM (inactive); in experiment [19], > 100 µM (inactive).

In the case of `CN(C)CC(CO)(CN(C)C)CN(C)C`, the GI50 in experiment [1], in experiment [2], in [20], in experiment [3], in experiment [4] and in experiment [5] was > 100 µM (inactive) throughout. The GI50 in experiment [6], in [7], in [8], in experiment [9], in experiment [10] and in experiment [11] was > 100 µM (inactive) throughout. Further, the GI50 in experiment [12] was > 100 µM (inactive); in [13], over 100 µM; in experiment [14] it was > 100 µM (inactive); in [15], > 100 µM (inactive); in [16], > 100 µM (inactive); in [19] it was > 100 µM (inactive). For the same molecule, the GI50 in [18] was > 100 µM (inactive).
